Data on two compounds can be found in ChEMBL document CHEMBL1157922, “Design of new dopamine D2 receptor ligands: biosynthesis and pharmacological evaluation of the hydroxylated metabolite of LASSBio-581” (Bioorg Med Chem Lett, 2010).

Assay [1] is described as follows: Displacement of [3H]YM-9151-2 from D2 like receptor in rat striatal membrane. The format is cell membranes, Striatum.
The target of assay [2] is 5-hydroxytryptamine receptor 2A (Rattus norvegicus, UniProt P14842). The experiment in a line: Displacement of [3H]ketanserin from 5HT2A receptor in rat cortex membrane. Format: cell membranes. (Loss of bound radioactivity is the signal in a displacement assay; it reports binding, not function.)
5-hydroxytryptamine receptor 2A, sequence (P14842 whole entry): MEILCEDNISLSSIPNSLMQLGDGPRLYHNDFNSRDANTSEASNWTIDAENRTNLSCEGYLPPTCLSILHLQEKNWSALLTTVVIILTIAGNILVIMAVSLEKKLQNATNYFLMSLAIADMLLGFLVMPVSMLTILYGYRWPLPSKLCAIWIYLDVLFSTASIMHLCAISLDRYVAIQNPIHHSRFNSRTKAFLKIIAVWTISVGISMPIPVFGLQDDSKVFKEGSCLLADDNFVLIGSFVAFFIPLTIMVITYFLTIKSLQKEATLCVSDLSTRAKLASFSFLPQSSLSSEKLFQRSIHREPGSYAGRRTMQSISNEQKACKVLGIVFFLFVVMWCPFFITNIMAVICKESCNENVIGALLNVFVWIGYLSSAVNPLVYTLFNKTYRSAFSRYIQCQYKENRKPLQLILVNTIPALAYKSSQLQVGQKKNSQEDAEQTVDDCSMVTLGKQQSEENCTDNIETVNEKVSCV

`Oc1ccc(N2CCN(Cc3cn(-c4ccc(Cl)cc4)nn3)CC2)cc1` had an inhibition constant Ki in assay [1] of 1.7 µM.
`Clc1ccc(-n2cc(CN3CCN(c4ccccc4)CC3)nn2)cc1`: the values for the Ki in assay [1] and in assay [2] were 0.95 µM and 11 µM, respectively.

In general, Ki refers to the equilibrium dissociation constant of an inhibitor or competing ligand from its target.
